Experimental data taken from the CheMixHub viscosity set.
Values joined by “and” are separate entries in the source; they are usually repeats but may differ in a detail not shown here. Equal entries are not always repeated.

Test: xn = mol fraction of the nth substance listed

c1ccc2ccccc2c1 + CCCCCC
viscosity
Settings | 298.15 K | 303.15 K | 308.15 K | 313.15 K | 318.15 K
101 kPa, x1 = 0.09526 | 0.3806 mPa·s | 0.3636 mPa·s | 0.3455 mPa·s | 0.331 mPa·s | 0.3166 mPa·s
101 kPa, x1 = 0.1771 | – | 0.4135 mPa·s | 0.3922 mPa·s | 0.3737 mPa·s | 0.3567 mPa·s
101.33 kPa, x1 = 0.09526 | 0.3806 mPa·s | 0.3636 mPa·s and 0.3636 mPa·s | 0.3455 mPa·s | 0.331 mPa·s | 0.3166 mPa·s and 0.3166 mPa·s
101.33 kPa, x1 = 0.1185 | – | 0.3813 mPa·s | – | – | 0.3268 mPa·s
101.33 kPa, x1 = 0.1464 | – | 0.3926 mPa·s | – | – | 0.3406 mPa·s
101.33 kPa, x1 = 0.1771 | – | 0.4135 mPa·s | – | – | 0.3567 mPa·s
101.33 kPa, x1 = 0.18 | – | 0.4135 mPa·s | 0.3922 mPa·s | 0.3737 mPa·s | 0.3567 mPa·s
101.33 kPa, x1 = 0.2165 | – | – | – | – | 0.3785 mPa·s

CCCCCCCCC(=O)O + CCCCCC(=O)[O-].[Na+]
100 kPa, x2 = 0.3
Settings | viscosity [mPa·s]
293.15 K | 280.5
298.15 K | 209
303.15 K | 158.8
308.15 K | 122.9
313.15 K | 96.5
318.15 K | 76.9
323.15 K | 62.2

C1CCOC1 + CCCCCCC
viscosity [mPa·s], 101 kPa
Settings | x1 = 0.1338 | x1 = 0.2578 | x1 = 0.3733 | x1 = 0.4809 | x1 = 0.5815 | x1 = 0.6758 | x1 = 0.7643 | x1 = 0.8475 | x1 = 0.926
293.15 K | 0.403 | 0.4075 | 0.413 | 0.4191 | 0.4285 | 0.4385 | 0.4495 | 0.4619 | 0.4751
298.15 K | 0.3861 | 0.3891 | 0.3935 | 0.3984 | 0.4061 | 0.4146 | 0.4242 | 0.4356 | 0.4465

CC(C)=O + CCCCCCC
296 K, 101.3 kPa
Settings | viscosity [mPa·s]
x1 = 0.0795 | 0.385
x1 = 0.1252 | 0.377
x1 = 0.1699 | 0.37
x1 = 0.2532 | 0.362
x1 = 0.3008 | 0.358
x1 = 0.3956 | 0.351
x1 = 0.4536 | 0.347
x1 = 0.5061 | 0.342
x1 = 0.6193 | 0.333
x1 = 0.6981 | 0.328
x1 = 0.7504 | 0.321
x1 = 0.8116 | 0.316
x1 = 0.8666 | 0.314
x1 = 0.9144 | 0.309
x1 = 0.9678 | 0.311

Cc1ccccc1 + CCCCCCC
298.15 K, 101 kPa
Settings | viscosity [mPa·s]
x2 = 0.4771 | 0.4775
x2 = 0.4859 | 0.476
x2 = 0.4953 | 0.474
x2 = 0.4983 | 0.4735
x2 = 0.4996 | 0.473
x2 = 0.5045 | 0.472
x2 = 0.5106 | 0.471
x2 = 0.5179 | 0.47
x2 = 0.5212 | 0.469
x2 = 0.5328 | 0.467
x2 = 0.5408 | 0.4655
x2 = 0.55 | 0.464
x2 = 0.561 | 0.4615
x2 = 0.579 | 0.458
x2 = 0.603 | 0.4535

COc1ccccc1 + CCCCCCCCCCCC
viscosity [mPa·s], 101.3 kPa
Settings | x1 = 0.1618 | x1 = 0.2902 | x1 = 0.3869 | x1 = 0.4735 | x1 = 0.5603 | x1 = 0.7159 | x1 = 0.843 | x1 = 0.9414
293.15 K | 1.324 | 1.228 | 1.17 | 1.125 | 1.092 | 1.023 | – | –
303.15 K | 1.123 | 1.048 | – | 0.964 | 0.94 | 0.903 | 0.89 | 0.902
313.15 K | 0.967 | 0.908 | 0.872 | 0.843 | 0.821 | 0.791 | 0.781 | 0.79
323.15 K | 0.844 | 0.797 | 0.768 | 0.744 | 0.726 | 0.701 | 0.692 | 0.699

CCCCCCCCC(=O)O + CCCCCCCCCCCC(=O)O
100 kPa, x2 = 0.25
Settings | viscosity [mPa·s]
293.15 K | 10.12
298.15 K | 8.636
303.15 K | 7.443
308.15 K | 6.47
313.15 K | 5.669
318.15 K | 5.003
323.15 K | 4.444

CCCCCCCCC(=O)O + CCCCCCCCCCCC(=O)[O-].[Na+]
100 kPa, x2 = 0.2
Settings | viscosity [mPa·s]
293.15 K | 68.61
298.15 K | 54.38
303.15 K | 43.69
308.15 K | 35.55
313.15 K | 29.28
318.15 K | 24.38
323.15 K | 20.51

COc1ccccc1 + CCCCCCCCCCCCCCCC
viscosity [mPa·s], 101.3 kPa
Settings | x1 = 0.1745 | x1 = 0.2566 | x1 = 0.3849 | x1 = 0.4725 | x1 = 0.5679 | x1 = 0.6889 | x1 = 0.8311 | x1 = 0.944
293.15 K | 2.794 | 2.566 | 2.193 | 1.975 | 1.773 | 1.51 | 1.279 | 1.131
303.15 K | 2.261 | 2.079 | 1.806 | 1.64 | 1.478 | 1.286 | 1.084 | 0.97
313.15 K | 1.866 | 1.73 | 1.518 | 1.387 | 1.258 | 1.092 | 0.942 | 0.845
323.15 K | 1.571 | 1.436 | 1.296 | 1.192 | 1.088 | 0.964 | 0.836 | 0.747

CCCCCCCCCCCCCCCCC + CCCCCCCCCCO
100 kPa, x1 = 0.076
Settings | viscosity [mPa·s]
298.2 K | 10.21
308.2 K | 6.94
318.2 K | 4.87

COc1ccccc1 + CCCCCCCCO
viscosity [mPa·s], 101.33 kPa
Settings | x1 = 0.1001 | x1 = 0.2 | x1 = 0.3002 | x1 = 0.3998 | x1 = 0.5 | x1 = 0.6002 | x1 = 0.7001 | x1 = 0.8002 | x1 = 0.9
303.15 K | 4.86 | 3.795 | 3.074 | 2.432 | 1.966 | 1.576 | 1.217 | 1.108 | 0.968
313.15 K | 3.589 | 2.872 | 2.342 | 1.922 | 1.561 | 1.28 | 1.014 | 0.934 | 0.831
323.15 K | 2.702 | 2.163 | 1.863 | 1.547 | 1.288 | 1.054 | 0.843 | 0.789 | 0.725

CC1COC(=O)O1 (centres undefined) + CCCCCCCO
298.15 K, 101 kPa
Settings | viscosity [mPa·s]
x1 = 0.0321 | 4.755
x1 = 0.1202 | 4.481
x1 = 0.1934 | 4.281
x1 = 0.2735 | 4.035
x1 = 0.3226 | 3.909
x1 = 0.4002 | 3.709
x1 = 0.4717 | 3.534
x1 = 0.5334 | 3.39
x1 = 0.6111 | 3.217
x1 = 0.699 | 3.031
x1 = 0.7602 | 2.909
x1 = 0.8226 | 2.789
x1 = 0.8925 | 2.662
x1 = 0.9674 | 2.529
